According to US12410472B2, “Method for evaluating the eye irritation potential of chemicals” (IMMUNOSEARCH, priority 2016, dated 2025):
Structures can show the parent of a compound that is named as a salt.

tested on: reconstructed human corneal epithelium model (SkinEthic™ HCE); settings: not given
Text: The reconstructed human corneal epithelium model, (SkinEthic™ HCE) was purchased from Episkin in Lyon. The model consists of immortalized human corneal epithelial cells grown in a defined medium at the air-liquid interface. The tissue structure obtained is a multi-layer epithelium similar to the natural tissue structure of the human cornea, comprising 5-7 layers with a surface area of 0.5 cm^2.
Polyhedral cells and wing cells are also present. The tissue also comprises specific ultrastructures such as intermediate filaments, mature hemidesmosomes and desmosomes. […] The tissues are shipped on a semi-solid layer of agarose culture medium. Upon receipt, the tissues are transferred to maintenance medium (1 ml/well) in 6-well plates and incubated in a climatic chamber at 37° C., 5% CO2. The tissues are used 24 hours later.
The procedure for applying solid (powdered) products to the tissues was optimized as follows. First, the products are reduced to the finest possible powder with a mortar. The chemicals are tested at a single dose. In summary, the tissue surface is moistened by adding 20 μl of PBS at 37° C. and incubation for 10 min at 37° C./5% CO2. The corneal epithelia are then treated topically with 30±2 mg (representing 60 mg/cm2) and incubated for 30 min at room temperature. The tissues are then washed with sterile PBS (2×25 ml) at 37° C. PBS is applied to the edge of the insert (not directly on the tissue) to create a gentle vortex that removes the chemical. The tissues on their inserts are then “embedded” in 5 ml of maintenance medium at room temperature for 30 minutes in order to remove as much as possible of the product remaining on the tissue surface. The medium is then removed by gently tapping the insert on absorbent paper, and 50 μl of maintenance medium at 37° C. is added. The inserts are then incubated for 6 h at 37° C./5% CO2.
In summary, corneal tissues are recovered with forceps and placed in tubes for rapid freezing in liquid nitrogen. The RNA is then extracted by the QIAzol technique (Qiagen, Courtaboeuf, France) with an “RNeasy Mini Kit” according to the manufacturer's instructions. In summary, the tissues are placed in 1 ml of QIAzol and homogenized using the TissueLyser II (Qiagen, Courtaboeuf, France) with 2 steel beads. After centrifugation, the supernatant is collected and 0.2 ml of bromochloro propane (Sigma, France) is added, then the whole is vigorously mixed. The homogenate is centrifuged at 12,000 g for 15 min at 4° C. The upper phase (aqueous phase) is added to 600 μl of 70% ethanol and immediately mixed by pipetting. The mixture is transferred to an RNeasy spin column placed on a 2 ml collection tube and the RNA is collected according to the manufacturer's instructions (Qiagen, Courtaboeuf, France).
In summary, the transcription of total RNA is performed with 1 μg of total RNA in a final volume of 20 μl using “Random Primers” (Invitrogen, France) and “SuperScript III Reverse Transcriptase” (Invitrogen, France) according to the manufacturer's instructions. Quantitative RT-PCR uses a PCR reagent mix: SYBR Green Real-Time PCR Master Mix (ROCHE, France) with 0.4 μM of each nucleotide primer in a final volume of 25 μl. The reaction is performed in an LC480 System (ROCHE, France). The amplification program comprises a cycle at 95° C. for 1 min, followed by 40 cycles with denaturation at 95° C. for 15 s, a hybridization and amplification phase at 60° C. for 15 s, followed by a final elongation phase at 72° C. for 40 s.
The relative amount of each transcript is normalized to the average amount of expression of 5 so-called housekeeping genes (Glucuronidase β-GUSB, vacuolar ATPase-ATP6V0E1, H2A Histone Family, Member Y-H2AFY, Glucose-6-Phosphate Dehydrogenase-G6PD and “non-POU domain-containing, octamer-binding”-NONO).
The gene expression rate is measured by an absolute quantification analysis method using an algorithm based on the maximum of the second derivative developed by Roche.

| SMILES | EIT prediction |
| --- | --- |
| Cc1cc(C)nc(Nc2ccccc2)n1 [2-Anilino-4,6-dimethylpyrimidine] | No Cat |
| CC(C)(C)c1cc(Cc2cc(C(C)(C)C)c(O)c(C(C)(C)C)c2)cc(C(C)(C)C)c1O [4,4′-Methylene bis-(2,6-di-tert-butylphenol)] | No Cat |
| CC(C)(C)CC(C)(C)c1cc(Cc2cc(C(C)(C)CC(C)(C)C)cc(-n3nc4ccccc4n3)c2O)c(O)c(-n2nc3ccccc3n2)c1 [Methylene bis-benzotriazolyl tetramethylbutyl phenol] | No Cat |
| O=C([O-])C(=O)[O-].[Na+].[Na+] [Sodium oxalate] | Cat 1 |
| CCCCCCCCCCCCCCOC(=O)CCCCCCCCCCCCC [Tetradecyl tetradecanoate] | No Cat |

same assay, conditions: classification from the Solid Irritation Index

| SMILES | EIT prediction |
| --- | --- |
| CC(C)(O)CCC(C)(C)O | Cat 1 |
| O=C(Nc1ccc(Cl)cc1)Nc1ccc(Cl)c(Cl)c1 [1-(4-Chlorophenyl)-3-(3,4-dichlorophenyl) urea] | No Cat |
| CCOc1ccc(Br)cc1 [4-Bromophenetol] | No Cat |
| F[B-](F)(F)F.[K+] [Potassium tetrafluoroborate] | No Cat |

same assay, conditions: human, 30 min, 60 mg/cm2

| SMILES | Irritation INDEX | EIT prediction |
| --- | --- | --- |
| Cc1cc(C)nc(Nc2ccccc2)n1 [2-Anilino-4,6-dimethylpyrimidine] | 0 |  |
| CC(CN1c2ccccc2Sc2ccccc21)N(C)C (centres unmarked) [Promethazine hydrochloride] |  | Cat 1 |
| CC(C)(O)C(=O)O [alpha-Hydroxyisobutyric acid] |  | Cat 1 |

same assay, conditions: solid product applied pure in powder form, 30±2 mg; first of three index values

| SMILES | Irritation INDEX |
| --- | --- |
| CC(C)(O)CCC(C)(C)O | 22 |
| O=C(Nc1ccc(Cl)cc1)Nc1ccc(Cl)c(Cl)c1 [1-(4-Chlorophenyl)-3-(3,4-dichlorophenyl) urea] | 0 |
| CCOc1ccc(Br)cc1 [4-Bromophenetol] | 2 |
| F[B-](F)(F)F.[K+] [Potassium tetrafluoroborate] | 4 |

same assay, conditions: solid product applied pure in powder form, 30±2 mg; second of three index values

| SMILES | Irritation INDEX |
| --- | --- |
| CC(C)(O)CCC(C)(C)O | 23 |
| O=C(Nc1ccc(Cl)cc1)Nc1ccc(Cl)c(Cl)c1 [1-(4-Chlorophenyl)-3-(3,4-dichlorophenyl) urea] | 0 |
| CCOc1ccc(Br)cc1 [4-Bromophenetol] | 2 |
| F[B-](F)(F)F.[K+] [Potassium tetrafluoroborate] | 6 |

same assay, conditions: solid product applied pure in powder form, 30±2 mg; third of three index values

| SMILES | Irritation INDEX |
| --- | --- |
| CC(C)(O)CCC(C)(C)O | 21 |
| O=C(Nc1ccc(Cl)cc1)Nc1ccc(Cl)c(Cl)c1 [1-(4-Chlorophenyl)-3-(3,4-dichlorophenyl) urea] | 1 |
| CCOc1ccc(Br)cc1 [4-Bromophenetol] | 3 |
| F[B-](F)(F)F.[K+] [Potassium tetrafluoroborate] | 2 |

tested on: eye; settings: Draize test classification; cited from earlier work

| SMILES | UN-GHS |
| --- | --- |
| CC(C)(O)CCC(C)(C)O | Cat 1 |
| O=C(Nc1ccc(Cl)cc1)Nc1ccc(Cl)c(Cl)c1 [1-(4-Chlorophenyl)-3-(3,4-dichlorophenyl) urea] | No Cat |
| CC(C)(C)c1cc(Cc2cc(C(C)(C)C)c(O)c(C(C)(C)C)c2)cc(C(C)(C)C)c1O [4,4′-Methylene bis-(2,6-di-tert-butylphenol)] | No Cat |
| CCOc1ccc(Br)cc1 [4-Bromophenetol] | No Cat |
| CC(C)(C)CC(C)(C)c1cc(Cc2cc(C(C)(C)CC(C)(C)C)cc(-n3nc4ccccc4n3)c2O)c(O)c(-n2nc3ccccc3n2)c1 [Methylene bis-benzotriazolyl tetramethylbutyl phenol] | No Cat |
| F[B-](F)(F)F.[K+] [Potassium tetrafluoroborate] | No Cat |
| CC(CN1c2ccccc2Sc2ccccc21)N(C)C (centres unmarked) [Promethazine hydrochloride] | Cat 1 |
| O=C([O-])C(=O)[O-].[Na+].[Na+] [Sodium oxalate] | Cat 1 |

same assay, conditions: Table 6; list of solid chemicals studied; cited from earlier work

| SMILES | GHS Class |
| --- | --- |
| CC(C)(O)CCC(C)(C)O | Cat 1 |
| O=C(Nc1ccc(Cl)cc1)Nc1ccc(Cl)c(Cl)c1 [1-(4-Chlorophenyl)-3-(3,4-dichlorophenyl) urea] | No cat |
| CC(C)(C)c1cc(Cc2cc(C(C)(C)C)c(O)c(C(C)(C)C)c2)cc(C(C)(C)C)c1O [4,4′-Methylene bis-(2,6-di-tert-butylphenol)] | No cat |
| CCOc1ccc(Br)cc1 [4-Bromophenetol] | No cat |
| F[B-](F)(F)F.[K+] [Potassium tetrafluoroborate] | No cat |
| CC(CN1c2ccccc2Sc2ccccc21)N(C)C (centres unmarked) [Promethazine hydrochloride] | Cat 1 |
| O=C([O-])C(=O)[O-].[Na+].[Na+] [Sodium oxalate] | Cat 1 |

same assay, conditions: control chemicals and chemicals of FIG. 1 and FIG. 2; cited from earlier work

| SMILES | eye irritation category as stated in text and figure legends |
| --- | --- |
| CC(C)(O)CCC(C)(C)O | category 1 |
| CC(C)(C)c1cc(Cc2cc(C(C)(C)C)c(O)c(C(C)(C)C)c2)cc(C(C)(C)C)c1O [4,4′-Methylene bis-(2,6-di-tert-butylphenol)] | No category |
| CCOc1ccc(Br)cc1 [4-Bromophenetol] | No category |
| F[B-](F)(F)F.[K+] [Potassium tetrafluoroborate] | No category |
| CC(CN1c2ccccc2Sc2ccccc21)N(C)C (centres unmarked) [Promethazine hydrochloride] | category 1 |
| O=C([O-])C(=O)[O-].[Na+].[Na+] [Sodium oxalate] | category 1 |
| CCCCCCCCCCCCCCOC(=O)CCCCCCCCCCCCC [Tetradecyl tetradecanoate] | No category |
| CC(C)(O)C(=O)O [alpha-Hydroxyisobutyric acid] | category 1 |

same assay, conditions: rabbit, in vivo; cited from earlier work

| SMILES | GHS Class | UN-GHS | eye irritation category as stated in text and figure legends |
| --- | --- | --- | --- |
| Cc1cc(C)nc(Nc2ccccc2)n1 [2-Anilino-4,6-dimethylpyrimidine] | No cat | No Cat | No category |
